Source: ChEMBL document CHEMBL1152465, “Comparative evaluation of the inhibitory activities of a series of pyrimidinedione congeners that inhibit human immunodeficiency virus types 1 and 2” (Antimicrob Agents Chemother, 2008)
Activity calls are given as the source filed them. No rule for the calls is given here.

Key:
[1] = tested on: Human immunodeficiency virus 1; assay: Antiviral activity against HIV1 infected in human CEM-SS cells assessed as inhibition of viral replication and virus-induced cytopathic effect by dose-response curve analysis; type: functional; details: Human immunodeficiency virus 1, CEM-SS
[2] = Therapeutic index, ratio of TC50 human HeLa cells expressing CD4-LTR to EC50 for HIV1 entry inhibition in human HeLa cells expressing CD4-LTR; type: cell-based; details: read-out: TI
[3] = tested on: Human immunodeficiency virus 2; assay: Antiviral activity against HIV2 assessed as inhibition of viral single round replication at early time point; type: functional, organism-based
[4] = tested on: Human immunodeficiency virus 2; assay: Antiviral activity against HIV2 assessed as inhibition of viral replication treated at time points after viral entry into host cells; type: functional, organism-based
[5] = Therapeutic index, ratio of TC50 for human CEM-SS cells to EC50 for HIV1 RF infected in human CEM-SS cells; type: cell-based; details: read-out: TI
[6] = Cytotoxicity against human CEM-SS cells by XTT assay; type: cell-based; details: read-out: TC50 (the source's name)
[7] = tested on: Human immunodeficiency virus 2; assay: Antiviral activity against HIV2 ROD infected in human CEM-SS cells assessed as inhibition of virus-induced cytopathic effect by XTT assay; type: functional, organism-based, ISOLATE ROD; details: Human immunodeficiency virus 2, ISOLATE ROD, CEM-SS; read-out: EC50
[8] = tested on: Human immunodeficiency virus 1; assay: Antiviral activity against HIV1 RF infected in human CEM-SS cells assessed as inhibition of virus-induced cytopathic effect by XTT assay; type: functional, organism-based; details: Human immunodeficiency virus 1, RF
[9] = target: Human immunodeficiency virus type 1 reverse transcriptase (Human immunodeficiency virus 1, UniProt Q72547, K103N); assay: Inhibition of HIV1 reverse transcriptase K103N mutant assessed as 32P-labeled GMP incorporation into nascent DNA strand
[10] = Therapeutic index, ratio of TC50 for human CEM-SS cells to EC50 for HIV2 ROD infected in human CEM-SS cells; type: cell-based; details: CEM-SS cells, read-out: TI
[11] = tested on: Human immunodeficiency virus 1; assay: Antiviral activity against HIV1 infected in human HeLa cells expressing CD4-LTR assessed as inhibition of viral entry-related beta galactosidase expression treated for 2 hrs followed by drug wash out measured after 48 hrs by MAGI assay; type: functional, organism-based; details: Human immunodeficiency virus 1, HeLa
[12] = tested on: Human immunodeficiency virus 2; assay: Inhibition of HIV2 reverse transcriptase
[13] = Cytotoxicity against human HeLa cells expressing CD4-LTR by XTT assay; type: cell-based; details: read-out: TC50 (the source's name)
[14] = tested on: Human immunodeficiency virus 2; assay: Inhibition of HIV2 reverse transcriptase assessed as 32P-labeled GMP incorporation into nascent DNA strand at highest concentration
[15] = target: Human immunodeficiency virus type 1 reverse transcriptase (Human immunodeficiency virus 1, UniProt Q72547); assay: Inhibition of wild type HIV1 reverse transcriptase assessed as 32P-labeled GMP incorporation into nascent DNA strand

Row | SMILES | EC99 [1] | selectivity ratio [2] | Activity [3] | Activity [4] | selectivity ratio [5] | CC50 [6] | EC50 [7] | EC50 [8] | IC50 [9] | selectivity ratio [10] | EC50 [11] | Activity [12] | CC50 [13] | Activity [14] | IC50 [15]
1 | Cc1cc(C)cc(Sc2c(C(C)C)c(=O)[nH]c(=O)n2Cc2ccccc2)c1 | 1 µM | 2340 | Active | inactive | 165000 | 192 µM | 0.2 µM | 0.0012 µM | 1.66 µM | 1220 | 0.08 µM | inactive | 192 µM | inactive | 0.137 µM
2 | CCc1c(Sc2cc(C)cc(C)c2)n(CCC2CCCC2)c(=O)[nH]c1=O | 1 µM | 60 | Active | inactive | 154 | 29 µM | 26.9 µM | 0.18 µM | 36.8 µM | 1.1 | 0.48 µM | inactive | 29 µM | inactive | 2.19 µM
3 | CCc1c(Oc2cc(C)cc(C)c2)n(CC2CCCCC2)c(=O)[nH]c1=O | 1 µM | 555 | Active | inactive | 5140 | 114 µM | 5.1 µM | 0.028 µM | 1.9 µM | 28.6 | 0.23 µM | inactive | 129 µM | inactive | 0.132 µM
4 | CCc1c(Sc2cc(C)cc(C)c2)n(CCC2CC=CC2)c(=O)[nH]c1=O | 1 µM | 1460 | Active | inactive | 1030 | 19.5 µM | 1.7 µM | 0.0241 µM | 141 µM | 11.4 | 0.09 µM | inactive | 135 µM | inactive | 0.179 µM
5 | CCc1c(Oc2cc(C)cc(C)c2)n(CCC2CC=CC2)c(=O)[nH]c1=O | 1 µM | 570 | Active | inactive | 4870 | 1100 µM | 1.5 µM | 0.23 µM | 9.8 µM | > 734 | 1.95 µM | inactive | 1110 µM | inactive | 1.14 µM
6 | CCc1c(Sc2cc(C)cc(C)c2)n(CCC2=CCCC2)c(=O)[nH]c1=O | 1 µM | 4400 | Active | inactive | 528 | 143 µM | 19.2 µM | 0.27 µM | 18.3 µM | 7.4 | 0.03 µM | inactive | 143 µM | inactive | 2.16 µM
7 | CCc1c(Sc2cc(C)cc(C)c2)n(CC2CCCC2)c(=O)[nH]c1=O | 1 µM | 1590 | Active | inactive | 3980 | 222 µM | 3.2 µM | 0.056 µM | 10.5 µM | 70.4 | 0.14 µM | inactive | 222 µM | inactive | 0.126 µM
8 | Cc1cc(C)cc(C(=O)c2c(C(C)C)c(=O)[nH]c(=O)n2CC2CCCCC2)c1 | 1 µM | 127 | Active | inactive | 8550 | 16.2 µM | 0.7 µM | 0.0052 µM | 16.5 µM | 23.8 | 0.24 µM | inactive | 30.4 µM | inactive | 0.008 µM
9 | CCc1c(Oc2cc(C)cc(C)c2)n(CC2=CCCC2)c(=O)[nH]c1=O | 1 µM | 7280 | Active | inactive | 4080 | 62.9 µM | 1.3 µM | 0.016 µM | 0.22 µM | 47.6 | 0.009 µM | inactive | 62.9 µM | inactive | 0.122 µM
